In the supplement of paper PMC10307832:

What was measured:
Test in all cases: relative viability (nuclei count vs DMSO), 5 days (fraction); higher = more cells survive
Zebularine + Vorinostat = compound: O=c1ncccn1[C@@H]1O[C@H](CO)[C@@H](O)[C@H]1O [Zebularine] + O=C(CCCCCCC(=O)Nc1ccccc1)NO [Vorinostat] (partner 1 µM)
Procedure, shortened: (§1)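 The day after seeding in 1536-well plates, lung cancer cell lines were treated by pin tool with a single drug, or with a fixed anchor-drug dose together with five library-drug doses (not always all listed) in √10 steps. After 5 days, a combined fix-and-stain solution (final 0.05% Triton X-100, 1% formaldehyde, 1 ug/ml Hoechst) was added. Nuclei counted on 4× images gave relative viability as treated counts over vehicle counts, reported as the median of duplicate plates.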

Zebularine + Decitabine = compound: O=c1ncccn1[C@@H]1O[C@H](CO)[C@@H](O)[C@H]1O [Zebularine] + Nc1ncn([C@H]2C[C@H](O)[C@@H](CO)O2)c(=O)n1 [Decitabine] (partner 2 µM)
Procedure, shortened: as §1

BI-D1870 + Palbociclib = compound: CC(C)CCN1c2nc(Nc3cc(F)c(O)c(F)c3)ncc2N(C)C(=O)C1C [BI-D1870] + CC(=O)c1c(C)c2cnc(Nc3ccc(N4CCNCC4)cn3)nc2n(C2CCCC2)c1=O [Palbociclib] (partner 0.5 µM)
Procedure, shortened: as §1

Zebularine + Phenformin = compound: O=c1ncccn1[C@@H]1O[C@H](CO)[C@@H](O)[C@H]1O [Zebularine] + N=C(N)NC(=N)NCCc1ccccc1 [Phenformin] (partner 250 µM)
Procedure, shortened: as §1

Question: What does the source list for UMC-11?
Answer: relative viability (Zebularine + Vorinostat; first compound 1 µM): 0.388; relative viability (Zebularine + Vorinostat; first compound 3.162 µM): 0.359; relative viability (Zebularine + Vorinostat; first compound 10 µM): 0.335; relative viability (Zebularine + Vorinostat; first compound 31.62 µM): 0.331; relative viability (Zebularine + Vorinostat; first compound 100 µM): 0.279; relative viability (Zebularine + Decitabine; first compound 1 µM): 0.557; relative viability (Zebularine + Decitabine; first compound 3.162 µM): 0.604; relative viability (Zebularine + Decitabine; first compound 10 µM): 0.589; relative viability (Zebularine + Decitabine; first compound 31.62 µM): 0.586; relative viability (Zebularine + Decitabine; first compound 100 µM): 0.527; relative viability (BI-D1870 + Palbociclib; first compound 0.04 µM): 0.331; relative viability (BI-D1870 + Palbociclib; first compound 0.1265 µM): 0.347; relative viability (BI-D1870 + Palbociclib; first compound 0.4 µM): 0.327; relative viability (BI-D1870 + Palbociclib; first compound 1.265 µM): 0.309; relative viability (BI-D1870 + Palbociclib; first compound 4 µM): 0.272; relative viability (Zebularine + Phenformin; first compound 1 µM): 0.282; relative viability (Zebularine + Phenformin; first compound 3.162 µM): 0.344; relative viability (Zebularine + Phenformin; first compound 10 µM): 0.258; relative viability (Zebularine + Phenformin; first compound 31.62 µM): 0.327; relative viability (Zebularine + Phenformin; first compound 100 µM): 0.292
